{"source": "paper PMC12263422", "about": "“Cryo-EM structure of the human THIK-1 K2P K^+ channel reveals a lower Y gate regulated by lipids and anesthetics” (Nature Structural & Molecular Biology, 2025)", "key": {"[1]": {"tested_on": "WT THIK-1 (coexpressed with hM1R)", "assay": "Whole-cell currents in transiently transfected HEK-293 cells, GqPCR (hM1-R) mediated activation by Oxo-M, WT THIK-1", "format": "cell-based, human", "details": "for activation by Oxo-M: 10 μM Oxo-M; for Maximal currents with Oxo-M: THIK-1 WT + M1R", "procedure": "(§1) Two-electrode voltage–clamp (TEVC) studies were performed in Xenopus oocytes. All animal use conformed to the Guide for the Care and Use of Laboratory Animals (NIH Publication 85–23), and all experiments using Xenopus toads were approved by the local ethics panels. Oocytes were stored at 17 °C in ND96 recording solution composed of (in mM): 96 NaCl, 2 KCl, 1.8 CaCl2, 1 MgCl2, 5 HEPES (pH 7.5 adjusted with NaOH and HCl), supplemented with Na-pyruvate (275 mg L^–1), theophylline (90 mg L^–1) and gentamicin (50 mg L^–1). Oocytes were injected with 1 ng mRNA for WT or mutant channels, and were incubated for 24–48 h at 17 °C. Two-electrode voltage clamp recordings were then performed as previously described[42],[43]. For macroscopic patch–clamp measurements, oocytes were obtained as described above incubated at 17 °C in a solution containing (mM): 54 NaCl, 30 KCl, 2.4 NaHCO3, 0.82 MgSO4 ×7 H2O, 0.41 CaCl2, 0.33 Ca(NO3)2 ×4 H2O and 7.5 TRIS (pH 7.4 adjusted with NaOH and HCl) for 1–4 days before use. Excised patch recordings in inside-out configuration conditions were performed at room temperature. Patch pipettes were made from thick-walled borosilicate glass GB 200TF-8P (Science Products), had resistances of 0.2–0.5 MΩ (tip diameter, 10–25 µm) and filled with a pipette solution (in mM): 120 KCl, 10 HEPES and 3.6 CaCl2 (pH 7.4 adjusted with KOH and HCl). Intracellular bath solutions and compounds were applied to the cytoplasmic side of excised patches for the various K^+ channels through a gravity flow multi-barrel pipette system. The intracellular solution had the following composition (in mM): 120 KCl, 10 HEPES, 2 EGTA and 1 pyrophosphate (pH adjusted with KOH and HCl). Currents were recorded with an EPC10 amplifier (HEKA Electronics) and sampled at 10 kHz or higher, with filtering set to 3 kHz (–3 dB) or higher, as appropriate for sampling rate. For measurements of GPCR activation, whole-cell currents were recorded for THIK-1 in transiently transfected HEK-293 cells. Cells were stimulated by a ramp protocol between −100 and +60 mV (holding potential, −80 mV). The pipette solution was composed of (in mM): 140 KCl, 2 MgCl2, 1 CaCl2, 2.5 EGTA and 10 HEPES (pH 7.3 adjusted with KOH and HCl). The extracellular bath solution had the following composition (in mM): 135 NaCl, 5 KCl, 2 MgCl2, 2 CaCl2, 10 glucose and 10 HEPES pH (pH 7.3 adjusted with NaOH and HCl). Oxotremorine M (Oxo-M) was added to extracellular bath solution to obtain the final concentration. Single-channel currents were recorded with an Axopatch 200B amplifier through a Digidata 1440A digitizer (Molecular Devices). Data were filtered at 2 kHz and recorded at a 200-kHz sampling rate with the program Clampex (Molecular Devices). […]"}, "[2]": {"tested_on": "THIK-1-Y273A (coexpressed with hM1R)", "assay": "Whole-cell currents in transiently transfected HEK-293 cells, GqPCR (hM1-R) mediated activation by Oxo-M, THIK-1-Y273A", "format": "cell-based, human", "details": "for Maximal currents with Oxo-M: THIK-1 Y273A + M1R", "procedure": "as §1, with “The intracellular solution had the following composition (in mM): 120 KCl, 10 HEPES, 2 EGTA and 1 pyrophosphate (pH adjusted with KOH and HCl).” left out, “Cells were stimulated by a ramp protocol between −100 and +60 mV (holding potential, −80 mV). The pipette solution was composed of (in mM): 140 KCl, 2 MgCl2, 1 CaCl2, 2.5 EGTA and 10 HEPES (pH 7.3 adjusted with KOH and HCl). The extracellular bath solution had the following composition (in mM): 135 NaCl, 5 KCl, 2 MgCl2, 2 CaCl2, 10 glucose and 10 HEPES pH (pH 7.3 adjusted with NaOH and HCl). Oxotremorine M (Oxo-M) was added to extracellular bath solution to obtain the final concentration.” left out"}, "[3]": {"target": "T1, WT THIK-1 (without M1R) (Homo sapiens, UniProt Q9HB14)", "T1 construct": "expressed in transfected cells; host or cells: HEK-293", "T1 sequence (Q9HB14 whole entry)": "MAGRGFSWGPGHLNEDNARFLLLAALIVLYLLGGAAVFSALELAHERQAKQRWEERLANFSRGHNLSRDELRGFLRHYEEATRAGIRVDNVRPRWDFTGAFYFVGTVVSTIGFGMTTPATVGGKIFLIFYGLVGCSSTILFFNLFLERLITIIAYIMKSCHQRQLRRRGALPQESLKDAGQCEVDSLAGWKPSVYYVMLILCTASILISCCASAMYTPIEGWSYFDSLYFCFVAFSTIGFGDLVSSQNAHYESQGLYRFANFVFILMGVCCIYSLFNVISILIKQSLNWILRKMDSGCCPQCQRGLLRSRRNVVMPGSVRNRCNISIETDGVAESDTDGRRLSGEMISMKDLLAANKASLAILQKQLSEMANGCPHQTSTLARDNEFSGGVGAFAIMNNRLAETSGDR", "assay": "Whole-cell currents in HEK-293 cells with Oxo-M, WT THIK-1 without M1R", "format": "cell-based", "details": "THIK-1 WT (no M1R)", "from_the_text": "Supplement 41594_2025_1497_MOESM2_ESM.xlsx, sheet \"ExtData_Fig_S2e\" | column: Maximal currents with Oxo-M (%); WT"}}, "note": "“And” between values parts separate entries of the source, which are not always exact repeats. Equal entries are not always repeated."}
{"smiles": "C[N+](C)(C)CC#CCN1CCCC1=O", "note": "[Oxo-M, Oxotremorine M]", "values": [{"measurement": "activation by Oxo-M", "setting": "[1]; WT THIK-1 with hM1-R", "result": "~ 50%"}, {"measurement": "activation by Oxo-M", "setting": "[1]; in the absence of hM1-R", "result": "no activation"}, {"measurement": "Maximal currents with Oxo-M", "setting": "[1]; individual recordings", "result": "172.080% and 208.230% and 131.370% and 127.470% and 125.270% and 149.760% and 113.980% and 121.900% and 146.330% and 151.430% and 123.170% and 131.250% and 181.580% and 173.780% and 155.620% and 228.290% and 290.820% and 139.180% and 66.330% and 107.180% and 88.700%"}, {"measurement": "Maximal currents with Oxo-M", "setting": "[1]; mean", "result": 149.22, "unit": "%"}, {"measurement": "activation by Oxo-M", "setting": "[2]; 10 μM Oxo-M, THIK-1-Y273A", "result": "no activation"}, {"measurement": "Maximal currents with Oxo-M", "setting": "[2]; individual recordings", "result": "93.100% and 97.920% and 94.800% and 93.870% and 99.320% and 100.290%"}, {"measurement": "Maximal currents with Oxo-M", "setting": "[2]; mean", "result": 96.55, "unit": "%"}, {"measurement": "Maximal currents with Oxo-M", "setting": "[3]; individual recordings", "result": "87.670% and 72.140% and 84.570% and 69.740% and 73.820% and 88.800% and 69.120% and 93.710% and 101.590% and 90.590% and 96.720% and 154.730% and 88.450%"}, {"measurement": "Maximal currents with Oxo-M", "setting": "[3]; mean", "result": 90.13, "unit": "%"}]}
